# Assay results published in patent publication US6229055A, “Synthesis of fluorinated xanthene derivatives” (Molecular Probes, Inc., priority 2000, dated 2001).
# Counter-ions that a name gives are not always drawn.
# What was measured:
# [1] = tested on: human lymphoid B-cell culture; assay: Cell labeling with fluorinated fluorescein diacetates, flow cytometry; assay type: cell-based; conditions: 1 μM, 37° C., 30 minutes, washed, fixed; compared with FDA after two hours (FIG. 5)
# Description: Cells from a human lymphoid B-cell culture in RPMI 1640 medium are treated with 1 μM Compound 25 (4,5,6,7-TFFDA), Compound 26 (2',4,5,6,7,7'-HFFDA), or fluorescein diacetate (FDA) at 37° C. for 30 minutes. Following centrifugation and washing in PBS, the pellets are resuspended in RPMI 1640 medium for 15 min, recentrifuged and washed in PBS, fixed with 3.7% formaldehyde in PBS and analyzed by flow cytometry using 488 nm excitation. […] Alternatively, the stained and washed cells are viewed or analyzed without fixation.
# [2] = tested on: ATP-dependent dye efflux mechanisms in lymphoid-B cell lines; assay: Dye efflux from labeled cells with and without verapamil or probenecid, flow cytometry; assay type: cell-based
# Description: Identical batches of lymphoid-B cell lines cells are separately incubated with […] solutions of 4,5,6,7-tetrafluorofluorescein diacetate (Compound 25), 2',7'-dichloro4,5,6,7-tetrafluorofluorescein diacetate (Compound 28), 2',4,5,6,7,7'-hexafluorofluorescein diacetate ([…]) and 2',4',5',7'-tetrafluorofluorescein diacetate. To one set of each cells is added 100 μM verapamil and to another 1 mM probenecid, both of which are known to block ATP-dependent dye efflux mechanisms, as found in multidrug resistant of cells. Without washing, the cells are analyzed for brightness by flow cytometry using 488-nm excitation.
# [3] = molecular target: Escherichia coli β-galactosidase (Escherichia coli, UniProt P00722); assay: Labeling β-galactosidase with a fluorinated fluorescein diacetate; conditions: 3 mg enzyme in PBS pH 7.5, 13.6 μL of 1 mg/mL dye, 1 hour; estimated with ε=85,600 cm^-1 M^-1 at 515 nm
# Description: Escherichia coli β-galactosidase (3 mg) in 150 μL phosphate-buffered saline pH 7.5 is treated with 13.6 μL of a 1 mg/mL stock solution of 4,5,6,7-tetrafluorofluorescein diacetate (Compound 25) in DMSO. After 1 hour the pH is raised to 10 with Na2 CO3 for 2 hours to remove the acetates. Unreacted dye is removed on a spin column. The degree of substitution is estimated at 8.6 using κ=85,600 cm^-1 M^-1 at 515 nm.
# [4] = Spectral properties of selected fluorinated fluoresceins and rhodols; assay type: physicochemical
# [5] = Photodecomposition on illumination in fluorometer; assay type: physicochemical; conditions: % of decreased fluorescence intensity after 33 minutes of illumination in fluorometer at wavelength of maximum excitation
# Description: *% of decreased fluorescence intensity after 33 minutes of illumination in
# fluorometer at wavelength of maximum excitation
# [6] = pH titration of fluorophores (pKa); conditions: Table 1
# Description: The dye of interest is first dissolved in a series of buffers that have each been calibrated using a pH meter. Acetate buffers are typically used in the range of pH 46, and phosphate buffers in the pH range 68. Absorption measurements are made using solutions that are approximately 10 1M in concentration, and fluorescence measurements are made using solutions that are approximately 1 μM in concentration. The absorption or emission data is then plotted versus pH to determine pKa values.
# [7] = molecular target: T1, acid β-galactosidase from bovine testes (Bos taurus, UniProt Q58D55); assay: Detection of acid β-galactosidase activity; assay type: biochemical; conditions: 50 μM substrate, 4.6 nM enzyme, pH 4.5, excitation 490 nm, emission 512 nm
# T1 construct: from tissue; host or cells: bovine testes
# T1 sequence (Q58D55 28-653): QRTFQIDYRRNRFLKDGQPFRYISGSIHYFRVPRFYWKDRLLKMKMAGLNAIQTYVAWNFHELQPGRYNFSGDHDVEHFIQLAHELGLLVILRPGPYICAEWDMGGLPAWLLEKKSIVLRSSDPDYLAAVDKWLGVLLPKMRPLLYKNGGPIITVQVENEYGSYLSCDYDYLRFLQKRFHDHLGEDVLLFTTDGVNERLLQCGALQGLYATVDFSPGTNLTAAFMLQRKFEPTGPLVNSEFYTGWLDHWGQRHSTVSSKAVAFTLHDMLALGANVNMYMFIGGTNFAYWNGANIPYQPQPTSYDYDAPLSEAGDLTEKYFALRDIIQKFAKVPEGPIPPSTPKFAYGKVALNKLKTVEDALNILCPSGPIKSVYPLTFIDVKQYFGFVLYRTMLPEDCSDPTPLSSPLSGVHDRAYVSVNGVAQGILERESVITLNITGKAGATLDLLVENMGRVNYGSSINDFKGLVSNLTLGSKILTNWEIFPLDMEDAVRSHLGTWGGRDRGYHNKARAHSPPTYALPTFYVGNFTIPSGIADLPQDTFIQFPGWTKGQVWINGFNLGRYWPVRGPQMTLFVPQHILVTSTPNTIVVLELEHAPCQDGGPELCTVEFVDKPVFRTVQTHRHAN
# Description: The fluorescence resulting from the action of acid β-galactosidase from bovine testes on fluorescein digalactoside (FDG) and DFFDG is compared. The fluorescence increase at 512 nm when excited at 490 nm is measured versus time for 50 μM substrate with 4.6 nM enzyme in assay buffer (200 mM sodium phosphate +75 mM citric acid, pH 4.5). The initial rate of fluorescence production from DFFDG is 3.0 times that obtained using FDG.
# [8] = molecular target: T2, Endogenous (Lysosomal) β-galactosidase in NIH 3T3 cells (Mus musculus, UniProt P23780); assay: Detection of endogenous (lysosomal) β-galactosidase activity in intact cells by flow cytometry; assay type: cell-based; conditions: 1 μM, 37° C., 30 minutes; for Fluorescence Emission: normalized to FDG, Table 4
# T2 construct: Endogenous (Lysosomal) β-galactosidase Activity in Intact Cells; endogenous in cells; host or cells: NIH 3T3
# T2 sequence (P23780 30-647): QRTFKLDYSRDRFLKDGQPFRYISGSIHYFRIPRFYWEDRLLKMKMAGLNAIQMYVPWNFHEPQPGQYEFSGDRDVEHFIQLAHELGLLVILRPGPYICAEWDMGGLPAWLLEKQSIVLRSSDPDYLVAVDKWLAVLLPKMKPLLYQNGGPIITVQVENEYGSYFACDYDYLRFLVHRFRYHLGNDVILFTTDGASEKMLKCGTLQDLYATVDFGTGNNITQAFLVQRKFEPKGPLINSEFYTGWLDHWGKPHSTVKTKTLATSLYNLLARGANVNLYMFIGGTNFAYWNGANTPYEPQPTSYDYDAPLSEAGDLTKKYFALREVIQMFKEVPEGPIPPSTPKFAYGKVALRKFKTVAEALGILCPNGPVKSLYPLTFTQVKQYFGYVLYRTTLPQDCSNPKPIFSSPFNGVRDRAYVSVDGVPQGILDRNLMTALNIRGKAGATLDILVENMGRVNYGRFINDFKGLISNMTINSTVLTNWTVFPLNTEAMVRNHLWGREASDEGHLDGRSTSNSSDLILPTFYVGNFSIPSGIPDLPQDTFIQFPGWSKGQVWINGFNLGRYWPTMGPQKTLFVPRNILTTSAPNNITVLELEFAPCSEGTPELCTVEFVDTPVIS
# Description: NIH 3T3 cells that are not transfected with exogenous β-galactosidase were cultured in Dulbecco's Modified Minimal Essential Medium supplemented with 10% fetal bovine serum and 2 mM L-glutamine. Stock solutions of TFMFDG and TFFDG in phosphate buffered saline (PBS) are added to the cell culture medium to obtain a final dye concentration of 1 μM. The cells are incubated at 37° C. for 30 minutes, put on ice and assayed immediately by flow cytometry using a FACS-Vantage instrument equipped with an argon-ion laser (488 nm excitation). Fluorescence emission is collected using a 515 nm long-pass filter and a single photomultiplier tube.
# [9] = molecular target: prostatic acid phosphatase (Homo sapiens, UniProt P15309); assay: Detection of acid phosphatase activity; assay type: biochemical; conditions: 10 μM substrate, 0.1 units enzyme, pH 5, excitation 490 nm, emission 515 nm
# Description: The rate of fluorescent product generation is measured by exciting a solution of 10 μM DFFDP or fluorescein diphosphate (FDP) at 490 nm while monitoring the emission at 515 nm in a fluorometer in the presence of 0.1 units of prostatic acid phosphatase at pH 5. Under these conditions, acid phosphatase produces about a 6.5 times greater change in signal using DFFP than FDP.
# [10] = Ca2+ binding affinity of BAPTA conjugate (Calcium Calibration Buffer Kit II)
# Description: The fluorescence response and dissociation constant of the fluorescent BAPTA conjugates are determined using the Calcium Calibration Buffer Kit II (Molecular Probes, Inc.; Eugene Oreg.), which is based on a method described by Tsien et al. METH. ENZYM. 172, 230 (1989). For example, 1 mg of Compound 103 is dissolved in deionized water and 5 μL is diluted into 3 mL of each of two buffers, which are cross diluted to arrive at a series of Ca^2+ concentrations between zero and 35 μM. Emission spectra of the dye solutions are scanned between dilutions to generate a family of curves. Each of these curves has maximal fluorescence emission at approximately 530 nm with an increase in fluorescence emission intensity with increasing Ca^2+ concentration. This intensity change is plotted against the concentration of free Ca^2+ to give a value for the dissociation constant of the indicator. […] The calculated dissociation constant at 20° C. is 169 nM.
# Escherichia coli β-galactosidase, sequence (P00722 2-1024): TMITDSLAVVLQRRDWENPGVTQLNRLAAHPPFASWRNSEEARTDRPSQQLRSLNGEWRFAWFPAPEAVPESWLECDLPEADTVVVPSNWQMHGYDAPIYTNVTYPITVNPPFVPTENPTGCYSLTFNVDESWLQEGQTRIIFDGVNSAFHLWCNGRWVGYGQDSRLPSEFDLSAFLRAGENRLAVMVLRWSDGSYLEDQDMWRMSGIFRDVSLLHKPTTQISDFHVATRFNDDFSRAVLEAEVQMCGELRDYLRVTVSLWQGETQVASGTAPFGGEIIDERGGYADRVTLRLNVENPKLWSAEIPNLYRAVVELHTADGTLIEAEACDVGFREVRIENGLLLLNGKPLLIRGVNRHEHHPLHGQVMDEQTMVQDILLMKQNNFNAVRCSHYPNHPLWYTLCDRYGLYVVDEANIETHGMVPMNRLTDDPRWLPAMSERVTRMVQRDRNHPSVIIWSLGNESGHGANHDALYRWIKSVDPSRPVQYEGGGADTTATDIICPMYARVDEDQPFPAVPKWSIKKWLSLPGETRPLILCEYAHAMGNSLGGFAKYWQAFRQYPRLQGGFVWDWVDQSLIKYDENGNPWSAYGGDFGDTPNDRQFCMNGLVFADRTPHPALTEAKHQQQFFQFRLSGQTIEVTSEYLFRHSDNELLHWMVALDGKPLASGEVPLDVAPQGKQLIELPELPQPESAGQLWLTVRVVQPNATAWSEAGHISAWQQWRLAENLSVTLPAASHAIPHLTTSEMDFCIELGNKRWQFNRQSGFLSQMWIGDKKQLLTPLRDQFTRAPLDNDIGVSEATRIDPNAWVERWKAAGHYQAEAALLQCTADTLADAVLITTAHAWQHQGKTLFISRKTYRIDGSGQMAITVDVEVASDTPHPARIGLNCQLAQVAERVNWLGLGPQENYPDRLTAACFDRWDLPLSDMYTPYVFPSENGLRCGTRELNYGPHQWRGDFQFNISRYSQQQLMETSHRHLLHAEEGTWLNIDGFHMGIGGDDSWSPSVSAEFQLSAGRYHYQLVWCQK
# prostatic acid phosphatase, sequence (P15309 33-386): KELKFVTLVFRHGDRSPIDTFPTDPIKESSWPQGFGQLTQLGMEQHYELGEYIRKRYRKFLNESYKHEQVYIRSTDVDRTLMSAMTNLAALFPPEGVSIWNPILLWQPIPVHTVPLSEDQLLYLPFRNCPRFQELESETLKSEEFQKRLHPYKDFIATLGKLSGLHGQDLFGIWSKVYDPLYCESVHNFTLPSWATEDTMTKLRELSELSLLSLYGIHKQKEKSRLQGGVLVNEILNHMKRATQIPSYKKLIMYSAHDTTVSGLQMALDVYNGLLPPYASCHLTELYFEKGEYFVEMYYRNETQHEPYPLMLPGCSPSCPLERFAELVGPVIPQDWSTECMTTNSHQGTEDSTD
Compound,fluorescence of stained cells [1],Mean Fluorescence intensity of labeled cells ([2]; 100 μM verapamil),Mean Fluorescence intensity of labeled cells ([2]; 1 mM Probenecid),Mean Fluorescence intensity of labeled cells ([2]; No drug),Fluorescence Emission [8],also measured
"CC(=O)Oc1c(F)cc2c(c1F)Oc1c(cc(F)c(OC(C)=O)c1F)C21OC(=O)c2ccccc21 [2',4',5',7'-TFFDA, 2',4',5',7'-tetrafluorofluorescein diacetate]",weakly fluorescent,14.0,12.8,2.9,,
"CC(=O)Oc1ccc2c(c1)Oc1cc(OC(C)=O)ccc1C21OC(=O)c2c(F)c(F)c(F)c(F)c21 [Compound 25, 4,5,6,7-tetrafluorofluorescein Diacetate]",significantly higher fluorescence,1892,2521,732,,protein labeling (degree of substitution) [3]: 8.6
"CC(=O)Oc1cc2c(cc1F)C1(OC(=O)c3c(F)c(F)c(F)c(F)c31)c1cc(F)c(OC(C)=O)cc1O2 [Compound 27, 2',4,5,6,7,7'-hexafluorofluorescein Diacetate]",significantly higher fluorescence,212,172,26.9,,
"O=C1OC2(c3ccc(O)cc3Oc3cc(O)ccc32)c2c(F)c(F)c(F)c(F)c21 [Compound 34, 4,5,6,7-tetrafluorofluorescein]",,,,,,"Abs. ([4]; absorption maximum): 508 nm; Em. ([4]; emission maximum): 527 nm; ε × 10^-3 ([4]; extinction coefficient, value is ε × 10^-3): 85.6 cm^-1 M^-1; Quantum Yield ([4]; fluorescence quantum yield): 0.85; photodecomposition [5]: 6.6%; protein labeling (degree of substitution) [3]: minimal protein labeling; pKa [6]: 6.1"
"O=C1OC2(c3cc(F)c(O[C@@H]4O[C@H](CO)[C@H](O)[C@H](O)[C@H]4O)cc3Oc3cc(O[C@@H]4O[C@H](CO)[C@H](O)[C@H](O)[C@H]4O)c(F)cc32)c2ccccc21 [Compound 94, 2',7'-difluorofluorescein, bis-O-galactoside]",,,,,,initial rate of fluorescence production relative to FDG [7]: 3.0 times
"O=C1OC2(c3ccc(O[C@@H]4O[C@H](CO)[C@H](O)[C@H](O)[C@H]4O)cc3Oc3cc(O[C@@H]4O[C@H](CO)[C@H](O)[C@H](O)[C@H]4O)ccc32)c2c(F)c(F)c(F)c(F)c21 [Compound 95, 4,5,6,7-tetrafluorofluorescein, bis-O-galactoside]",,,,,4.1,fluorescence signal relative to FDG [8]: 4.1 times
"O=C1OC2(c3cc(F)c(OP(=O)(O)O)cc3Oc3cc(OP(=O)(O)O)c(F)cc32)c2ccccc21 [Compound 96, 2',7'-fluorofluorescein Diphosphate, Tetraammonium Salt]",,,,,,change in signal relative to FDP [9]: ~6.5 times
O=C(O)CN(CC(=O)O)c1ccccc1OCCOc1cc(NC(=O)c2ccc3c(c2)C(=O)OC32c3cc(F)c(O)cc3Oc3cc(O)c(F)cc32)ccc1N(CC(=O)O)CC(=O)O [Compound 103],,,,,,"fluorescence emission intensity increase ([10]; Ca^2+ from zero to 35 μM, emission approximately 530 nm): approximately 17 fold; Kd ([10]; Ca^2+, 20° C., read-out: dissociation constant): 169 nM"
"O=C1OC2(c3ccc(O[C@@H]4O[C@H](CO)[C@H](O)[C@H](O)[C@H]4O)cc3Oc3cc(O[C@@H]4O[C@H](CO)[C@H](O)[C@H](O)[C@H]4O)ccc32)c2ccccc21 [FDG, fluorescein digalactoside, reference compound]",,,,,1.0,
"COc1c(F)c(F)c2c(c1F)C1(OC2=O)c2ccc(O[C@@H]3O[C@H](CO)[C@H](O)[C@H](O)[C@H]3O)cc2Oc2cc(O[C@@H]3O[C@H](CO)[C@H](O)[C@H](O)[C@H]3O)ccc21 [TFMFDG, 4,5,7-trifluoro-6-methoxyfluorescein Digalactoside]",,,,,48.1,fluorescence signal relative to FDG [8]: 48.1 times
